Reference: US20050004079A1, “Pharmaceutical compositions for intranasal administration of [2-(8,9-dioxo-2,6-diazabicyclo[5.2.0]non-1(7)-en-2-yl)alkyl] phosphonic acid and derivatives and methods of use thereof” (Wyeth, priority 2003, published 2005)
Where two headings read alike, the source gives them in different places.

Key:
[1] = monkey, in vivo, iv, 1.1 mg/kg
[2] = system: Prostaglandin E2-induced thermal hypersensitivity; test: In vivo efficacy in rats: Prostaglandin E2-induced thermal hypersensitivity (warm-water tail withdrawal); design: species or system Spraque-Dawley rats; conditions: for % MPE (reversal of PGE2-induced thermal hypersensitivity): rat, 30 min before PGE2
Experimental: Subjects: Individually housed Spraque-Dawley rats had free access to rat chow and water. A 12-h light/12-h dark cycle was in effect (lights on from 6:00 am to 6:00 pm). Animal maintenance and research were conducted in accordance with the guidelines provided by the National Institutes of Health Committee on Laboratory Animal Resources. These subjects were used in the tests below.
Procedure: The terminal 10 cm of the tail was placed into a thermos bottle containing water warmed to 38, 42, 46, 50 or 54° C. The latency in seconds for the animal to remove the tail from the water was used as a measure of nociception.
Following the assessment of baseline thermal sensitivity, thermal hypersensitivity was produced by a 50 μL injection of 0.1 mg prostaglandin E2 (PGE2) into the terminal 1 cm of the tail. Temperature-effect curves were generated before (baseline) and after (15, 30, 60, 90 and 120 min) the PGE2 injection.
The ability of compounds to reverse PGE2-induced thermal hypersensitivity was assessed using a single dose time-course procedure. Under this procedure, a single dose of the compound to be tested was administered intraperitoneally (IP), orally (PO) or intranasally (IN) 30 min before the injection of PGE2. […] sensitivity was assessed 30 min after PGE2 injection. For the IP and PO administration, compound was administered in a volume of 1 ml/kg with the dose administered calculated as mg/kg. For IN administration, rats were lightly anesthetized with 3.5% halothane in O2 and compound or vehicle was administered in a volume of 25 μL solution dropped into each nostril with the dose administered in absolute mg.
Data Analysis: The temperature that produced a half-maximal increase in the tail-withdrawal latency (i.e., T10) was calculated from each temperature-effect curve. The T10 was determined by interpolation from a line drawn between the point above and the point below 10 sec on the temperature-effect curve. For these studies, thermal hypersensitivity was defined as a leftward shift in the temperature-effect curve and a decrease in the T10 value. Reversal of thermal hypersensitivity was defined as a return to baseline of the temperature-effect curve and the T10 value and was calculated according to the following equation: [formula] in which T10^drug+PGE2 is the T10 after a drug in combination with PGE2, T10^PGE2 is the T10 after PGE2 alone, and T10^baseline is the T10 under control conditions. A % MPE value of 100 indicates a complete return to the baseline thermal sensitivity observed without the PGE2 injection.

in vivo = conditions: monkey, po

- AUC [1]: 1.67 ughr/ml
- AUC (in vivo; 20 mg/kg): 1740 ng·h/mL
- Cmax (in vivo; 20 mg/kg): 147 ng/mL
- bioavailability (in vivo; 100 mg/kg): ~2.5%
SMILES: O=c1c2c(c1=O)N(CCP(=O)(O)O)CCCN2 [Compound A, [2-(8,9-dioxo-2,6-diazabicyclo[5.2.0]non-1(7)-en-2-yl)ethyl]phosphonic acid]
- in vivo efficacy of intranasal and intraperitoneal administration compared with oral administration ([2]; rat PGE2-induced thermal hypersensitivity model, intranasal and intraperitoneal found similar): ten folds higher
- % MPE (reversal of PGE2-induced thermal hypersensitivity) ([2]; IP, 1 mg/kg): −7%
- % MPE (reversal of PGE2-induced thermal hypersensitivity) ([2]; IP, 3 mg/kg): 66%
- % MPE (reversal of PGE2-induced thermal hypersensitivity) ([2]; IP, 10 mg/kg, 10 mg/kg): 79%
- % MPE (reversal of PGE2-induced thermal hypersensitivity) ([2]; PO, 10 mg/kg): 5%
- % MPE (reversal of PGE2-induced thermal hypersensitivity) ([2]; PO, 30 mg/kg): 23%
- % MPE (reversal of PGE2-induced thermal hypersensitivity) ([2]; PO, 100 mg/kg, 100 mg/kg): 87%
